Results from patent publication US20190010535A1, “METHODS AND COMPOSITIONS FOR THE DIAGNOSIS AND FOR THE TREATMENT OF ADRENOLEUKODYSTROPHY” (FUNDACIÓ INSTITUT D'INVESTIGACIÓ BIOMÈDICA DE BELLVITGE …, priority 2015, published 2019).

How the values were obtained:
Assay type in all cases: in vivo
[1] = system: Abcd1−/Abcd2−/− mice; assay: Treadmill test; settings: four months of treatment starting at 12 months of age, belt speed 30 cm/sec, slope 20°
Method: (§1) Treadmill apparatus consisted of a variable speed belt varying in terms of speed and slope. An electrified grid was located to the rear of the belt on which footshocks (0.2 mA) were administered whenever the mice fell off the belt. The treadmill apparatus (Panlab, Barcelona, Spain) consisted of a belt (50 cm long and 20 cm wide) varying in terms of speed (5 to 150 cm/s) and slope (0-25°) enclosed in a plexiglass chamber. The latency to falling off the belt (time of shocks in seconds) and the number of received shocks were measured. The mice were placed on the top of the already moving belt facing away from the electrified grid and in the direction opposite to the movement of the belt. Thus, to avoid the footshocks, the mice had to locomote forward.
(§2) The mice were evaluated in five trials in a single-day session. In the first trial, the belt speed was set at 20 cm/s and the inclination at 50. […] When the mice were subjected to consecutive trials at increasing speeds up to 20 cm/sec and a 20° slope, no differences were detected from one session to another between the WT and Abcd1^−/Abcd2^−/− mice. However, when the belt speed was increased up to 30 cm/sec and the slope was 20°, differences were detected between the Abcd1^−/Abcd2^−/− mice and the controls because this task requires greater coordination. […]

[2] = system: Abcd1−/Abcd2−/− mice; assay: Locomotor testing overall (treadmill and bar cross), disease progression in X-ALD mice; settings: four months of treatment
Method: as §1, with “Thus, to avoid the footshocks, the mice had to locomote forward.” left out
as §2, with “session.” for “session. In the first trial, the belt speed was set at 20 cm/s and the inclination at 50.”
The bar cross test was carried out using a wooden bar of 100 cm in length and 2 cm in width (diameter). […] In an experimental session, the number of hind limb lateral slips and falls from the bar was counted on four consecutive trials. […]

[3] = system: Abcd1−/Abcd2−/− mice; assay: Horizontal bar cross test; settings: four months of treatment starting at 12 months of age
Method: The bar cross test was carried out using a wooden bar of 100 cm in length and 2 cm in width (diameter). This bar is just wide enough for mice to stand on with their hind feet hanging over the edge such that any slight lateral misstep will result in a slip. […] The mice were put on one end of the bar and expected to cross to the other end. To eliminate the novelty of the task as a source of slips, all animals were given four trials on the bar the day before and at the beginning of the testing session. In an experimental session, the number of hind limb lateral slips and falls from the bar was counted on four consecutive trials. If an animal fell, it was placed back on the bar at the point at which it fell and was allowed to complete the task. The bar was cleaned with ethanol after each animal.

| SMILES | ratio between the time of shocks and the number of shocks (locomotor deficit index) [1] | progression of the disease in X-ALD mice [2] | number of slips [3] | time necessary to cross the bar [3] |
| --- | --- | --- | --- | --- |
| CCCCCCCCc1ccc(CCC(N)(CO)CO)cc1 [Fingolimod] | indistinguishable from the WT ratio | arrested the progression of the disease | normalized | normalized |
| CCc1cc(/C(C)=N/OCc2ccc(C3CCCCC3)c(C(F)(F)F)c2)ccc1CN1CC(C(=O)O)C1 [Siponimod] | indistinguishable from the WT ratio | arrested the progression of the disease | normalized | normalized |
